Measurements taken from PubChem BioAssay (NCI).
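Exposure lasted 48 hours, with cells grown in 96-well plates and compounds tested at five concentrations. TGI is the concentration that stops growth completely.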

Experiments:
Experiment in all cases: DTP human tumour cell line panel, 48 h
A549 NSCLC = tested on: A549 NSCLC
BT-549 breast = tested on: BT-549 breast
CAKI-1 renal = tested on: CAKI-1 renal
COLO 205 colon = tested on: COLO 205 colon
HCT-15 colon = tested on: HCT-15 colon
HL-60(TB) leukemia = tested on: HL-60(TB) leukemia
HS 578T breast = tested on: HS 578T breast
K-562 leukemia = tested on: K-562 leukemia
MOLT-4 leukemia = tested on: MOLT-4 leukemia
OVCAR-3 ovarian = tested on: OVCAR-3 ovarian
PC-3 prostate = tested on: PC-3 prostate
SNB-75 CNS = tested on: SNB-75 CNS
SR leukemia = tested on: SR leukemia
SW-620 colon = tested on: SW-620 colon
U251 CNS = tested on: U251 CNS
NCI-H522 lung = tested on: NCI-H522 lung

Measured: TGI

O=C(O)CN1C=C(C(=O)c2cc3ccccc3n2S(=O)(=O)c2ccccc2)CCC1
42.5 µM: COLO 205 colon
> 100 µM: A549 NSCLC | BT-549 breast | CAKI-1 renal | HCT-15 colon | HS 578T breast | K-562 leukemia | MOLT-4 leukemia | OVCAR-3 ovarian | PC-3 prostate | SNB-75 CNS | SR leukemia | SW-620 colon | U251 CNS
71.5 µM: HL-60(TB) leukemia

CC(=O)Nc1ccc(NCC(=O)Nn2cnc3ccc(S(=O)(=O)Nc4ccc(NC(C)=O)cc4)cc3c2=O)cc1
> 100 µM: A549 NSCLC | BT-549 breast | CAKI-1 renal | COLO 205 colon | HCT-15 colon | HL-60(TB) leukemia | HS 578T breast | K-562 leukemia | MOLT-4 leukemia | NCI-H522 lung | OVCAR-3 ovarian | PC-3 prostate | SNB-75 CNS | SR leukemia | SW-620 colon | U251 CNS

CC[C@H](C)[C@H]1NC(=O)[C@@H](NC(=O)[C@@H](CC(C)C)N(C)C(=O)C2CCCN2C(=O)[C@H](C)O)[C@@H](C)OC(=O)[C@H](Cc2ccc(OC)cc2)N(C)C(=O)[C@@H]2CCCN2C(=O)[C@H](CCCCNC(=O)OCc2ccccc2)NC(=O)[C@H](C)C(=O)[C@H](C(C)C)OC(=O)C[C@@H]1O (stereo partly drawn)
16.5 µM: PC-3 prostate
17.6 µM: U251 CNS
> 25 µM: A549 NSCLC | BT-549 breast | CAKI-1 renal | HCT-15 colon | HL-60(TB) leukemia | K-562 leukemia | MOLT-4 leukemia | NCI-H522 lung | SR leukemia | SW-620 colon
24.8 µM: OVCAR-3 ovarian
18.9 µM: COLO 205 colon
8.35 µM: HS 578T breast

O=C1NC(=O)C(F)(n2cc(F)c(=O)[nH]c2=O)C(O)N1 (stereo not drawn)
> 10 µM: A549 NSCLC | BT-549 breast | CAKI-1 renal | COLO 205 colon | HCT-15 colon | HL-60(TB) leukemia | HS 578T breast | K-562 leukemia | MOLT-4 leukemia | NCI-H522 lung | OVCAR-3 ovarian | PC-3 prostate | SNB-75 CNS | SR leukemia | SW-620 colon | U251 CNS

O=C(O)CCCC(=O)Nn1c(Cc2ccc(Cl)cc2)n[nH]c1=O
> 100 µM: A549 NSCLC | BT-549 breast | CAKI-1 renal | COLO 205 colon | HCT-15 colon | HL-60(TB) leukemia | HS 578T breast | K-562 leukemia | MOLT-4 leukemia | NCI-H522 lung | OVCAR-3 ovarian | PC-3 prostate | SR leukemia | SW-620 colon | U251 CNS

CC(C)OC(=O)c1ccc(CCC2=CC(=O)C=CC2=O)cc1
17 µM: OVCAR-3 ovarian
> 37.1 µM: K-562 leukemia
62.5 µM: SNB-75 CNS
19.7 µM: BT-549 breast
50 µM: HS 578T breast
25.1 µM: HCT-15 colon
26.1 µM: PC-3 prostate
37.8 µM: U251 CNS
> 25.3 µM: SR leukemia
4.26 µM: CAKI-1 renal
> 79.7 µM: A549 NSCLC
7.56 µM: HL-60(TB) leukemia
22.1 µM: COLO 205 colon
4.02 µM: NCI-H522 lung
19.1 µM: SW-620 colon
8.05 µM: MOLT-4 leukemia

Cc1ccccc1N=Nc1c(O)c(S(=O)(=O)O)cc2cc(S(=O)(=O)O)ccc12
> 100 µM: A549 NSCLC | BT-549 breast | CAKI-1 renal | COLO 205 colon | HCT-15 colon | HL-60(TB) leukemia | HS 578T breast | K-562 leukemia | MOLT-4 leukemia | NCI-H522 lung | OVCAR-3 ovarian | PC-3 prostate | SNB-75 CNS | SR leukemia | SW-620 colon | U251 CNS

COc1ccc(C2N(c3ccc(F)cc3)C(=O)N3C(c4ccc(OC)cc4)N(c4ccc(F)cc4)C(=O)N23)cc1 (stereo not drawn)
> 100 µM: A549 NSCLC | BT-549 breast | CAKI-1 renal | COLO 205 colon | HCT-15 colon | HL-60(TB) leukemia | HS 578T breast | NCI-H522 lung | OVCAR-3 ovarian | PC-3 prostate | SNB-75 CNS | SR leukemia | SW-620 colon | U251 CNS

COC(=O)/C=C1\C(=O)N(C(C)=O)c2ccc(Br)cc21
13.3 µM: NCI-H522 lung
13.5 µM: SR leukemia
> 47 µM: CAKI-1 renal
36.8 µM: HS 578T breast
21.7 µM: HCT-15 colon
5.66 µM: HL-60(TB) leukemia
10 µM: MOLT-4 leukemia
44.9 µM: K-562 leukemia
25.9 µM: SW-620 colon
15.7 µM: OVCAR-3 ovarian
27.8 µM: COLO 205 colon
20.9 µM: PC-3 prostate
22.8 µM: BT-549 breast
21.8 µM: SNB-75 CNS
20 µM: U251 CNS
36 µM: A549 NSCLC

CC(=O)Nc1c(S(=O)(=O)c2ccccc2)c(C)c(C)n1CCN(C)C
> 100 µM: A549 NSCLC | BT-549 breast | CAKI-1 renal | COLO 205 colon | HCT-15 colon | HL-60(TB) leukemia | HS 578T breast | K-562 leukemia | MOLT-4 leukemia | NCI-H522 lung | OVCAR-3 ovarian | PC-3 prostate | SNB-75 CNS | SR leukemia | SW-620 colon | U251 CNS

Cc1ccn2c(=O)cc(CN3CCOCC3)nc2c1
> 100 µM: A549 NSCLC | BT-549 breast | CAKI-1 renal | COLO 205 colon | HCT-15 colon | HL-60(TB) leukemia | HS 578T breast | K-562 leukemia | MOLT-4 leukemia | NCI-H522 lung | OVCAR-3 ovarian | PC-3 prostate | SNB-75 CNS | SR leukemia | SW-620 colon | U251 CNS

COc1ccccc1NC(=S)N/N=C/c1c(C)n(C)n(-c2ccccc2)c1=O
> 100 µM: BT-549 breast | CAKI-1 renal | COLO 205 colon | HCT-15 colon | HL-60(TB) leukemia | HS 578T breast | K-562 leukemia | MOLT-4 leukemia | PC-3 prostate | SNB-75 CNS | SR leukemia | SW-620 colon | U251 CNS

CC(=O)O[C@H]1C(=O)[C@@]2(C)[C@H]([C@H](OC(=O)c3cccc([N+](=O)[O-])c3)[C@]3(O)C[C@H](OC(=O)[C@H](O)[C@@H](NC(=O)c4ccccc4)c4ccccc4)C(C)=C1C3(C)C)[C@]1(OC(C)=O)CO[C@@H]1C[C@@H]2O
0.00761 µM: HS 578T breast
0.0183 µM: OVCAR-3 ovarian
0.0161 µM: NCI-H522 lung
0.295 µM: SNB-75 CNS
< 0.0025 µM: HL-60(TB) leukemia
> 25 µM: A549 NSCLC | BT-549 breast | CAKI-1 renal | HCT-15 colon | PC-3 prostate | SW-620 colon
0.113 µM: SR leukemia
> 20.3 µM: MOLT-4 leukemia

CC(O)(Cc1ccccc1C#N)Cc1ccccc1C#N
> 100 µM: A549 NSCLC | BT-549 breast | CAKI-1 renal | COLO 205 colon | HCT-15 colon | HS 578T breast | K-562 leukemia | MOLT-4 leukemia | NCI-H522 lung | OVCAR-3 ovarian | PC-3 prostate | SR leukemia | SW-620 colon | U251 CNS
97.7 µM: HL-60(TB) leukemia
98.9 µM: SNB-75 CNS
